Data on four molecules can be found in EP0554400B1, “RETROVIRAL PROTEASE INHIBITORS” (MONSANTO COMPANY, priority 1990, dated 1992).

The test system of one data set is HIV-1. The data set is described as follows: HIV inhibition assay of acutely infected CEM cells (tetrazolium/MTT colorimetric). The class given is cell-based. The conditions noted are these: Table 7, CEM cells acutely infected with HIV-1, 7 days, MTT. The method, then:
The effectiveness of the compounds listed in Table 7 were determined in the above-described enzyme assay and in a CEM cell assay.
(§1) Methods 20, 309-321 (1988).

In the next data set the target is T1, HIV protease (Human immunodeficiency virus type 1 group M subtype B, UniProt P04585).
T1 construct: HIV protease is diluted in the assay buffer to a final enzyme concentration of 12.3 nanomolar, based on a molecular weight of 10,780
The data set is described as follows: HIV protease enzyme assay (fluorogenic substrate 2-aminobenzoyl-Ile-Nle-Phe(p-NO2)-Gln-ArgNH2). It is filed as biochemical. The source says:
The compounds of the present invention are effective HIV protease inhibitors. Utilizing an enzyme assay as described below, the compounds set forth in the examples herein disclosed inhibited the HIV enzyme. The preferred compounds of the present invention and their calculated IC50 (inhibiting concentration 50%, i.e., the concentration at which the inhibitor compound reduces enzyme activity by 50%) values are shown in Table 6. The enzyme method is described below. The substrate is 2-aminobenzoyl-Ile-Nle-Phe(p-NO2)-Gln-ArgNH2. The positive control is MVT-101 (Miller, M. et al, Science, 246, 1149 (1989)] The assay conditions are as follows: Assay buffer: • 20 mM sodium phosphate, pH 6.4 • 20% glycerol • 1 mM EDTA • 1 mM DTT • 0.1% CHAPS
The above described substrate is dissolved in DMSO, then diluted 10 fold in assay buffer. Final substrate concentration in the assay is 80 µM.
HIV protease is diluted in the assay buffer to a final enzyme concentration of 12.3 nanomolar, based on a molecular weight of 10,780.
The final concentration of DMSO is 14% and the final concentration of glycerol is 18%. The test compound is dissolved in DMSO and diluted in DMSO to 10x the test concentration; 10 µl of the enzyme preparation is added, the materials mixed and then the mixture is incubated at ambient temperature for 15 minutes. The enzyme reaction is initiated by the addition of 40µl of substrate. The increase in fluorescence is monitored at 4 time points (0, 8, 16 and 24 minutes) at ambient temperature. Each assay is carried out in duplicate wells.

In a further data set the test system is CEM cells. Description: Intrinsic toxicity of test compound in uninfected CEM cells (MTT). It is filed as cell-based. The settings on record: Table 7, CEM cells without virus, 7 days, read-out: TD50 (the source's name).
Excerpt: as §1

[1] abbreviates: Table 6, 80 µM substrate, 12.3 nanomolar enzyme, pH 6.4.
Where [2] appears, read: Table 7, above-described enzyme assay.

The EC50 is the midpoint of the concentration-response curve. Low readings indicate a more potent agent, high ones a less potent agent. As usually defined, the IC50 is the concentration that gives 50% inhibition. A higher IC50 goes with a need for much substance. In turn, `COc1ccc(COC(=O)N[C@@H](Cc2ccccc2)[C@H](O)CN(CCC(C)C)C(=O)NC(C)(C)C)cc1` (relative stereo) [Carbamic acid, [3-[[[(1,1-dimethylethyl)amino]carbonyl](3-methylbutyl)amino]-2-hydroxy-1-(phenylmethyl)propyl]-, (4-methoxyphenyl)methyl ester, [1S-[1R*,2S*]]] displayed an EC50 in the data set with HIV-1 (Human immunodeficiency virus 1, CCRF-CEM, 168 h) of 820 nM. At HIV protease (setting [1]), this molecule registered an IC50 of 489 nM.
Take `CC(C)CCN(C[C@@H](O)[C@H](Cc1ccccc1)NC(=O)OCc1ccccc1)C(=O)NC(C)(C)C` (relative stereo) [Carbamic acid, [3-[[[(1,1-dimethylethyl)amino]carbonyl](3-methylbutyl)amino]-2-hydroxy-1-(phenylmethyl)propyl]-, phenylmethyl ester, [1S-[1R*,2S*]]]: on HIV protease (setting [1]), 112 nM corresponded to half-maximal inhibition (IC50).
As to “Phenylmethylamide, N-[3-[[[(1,1-dimethylethyl)amino]carbonyl](3-methylbutyl)amino]-2-hydroxy-1-(phenylmethyl)propyl]-3,3-dimethyl-, [1S-[1R*,2S*]]”, the IC50 against HIV protease (setting [1]) and against HIV protease (setting [2]) was 850 nM throughout.
As for `CC(C)C[C@H](NC(=O)[C@@H](N)Cc1ccccc1)C(=O)NC(=O)NC[C@H](O)[C@H](Cc1ccccc1)NC(=O)OC(C)(C)C` [(2S,3S)-3-(N-1,1-dimethylethoxycarbonyl)amido-1-(L-phenylalanyl-L-leucylcarbamoyl)amino-4-phenyl butanol], the CC50 with CEM cells amounted to 54000 nM. Moreover, the EC50 in the data set with HIV-1 was 13000 nM. In addition, the IC50 against HIV protease (setting [1]) and against HIV protease (setting [2]) was 5000 nM in each case.
